Laboratory results as given in paper PMC5216056 (Nature Communications, 2017).

Key:
dopamine uptake reporter = molecular target: T1, dopamine uptake reporter (Homo sapiens, UniProt Q01959); experiment: Dopamine uptake full dose-response (CEREP follow-up)
T1 construct: CEREP

[1] = Pharmacokinetics, oral administration in rat; type: in vivo; details: p.o.
D2S (h) = molecular target: T2, D2S (h) (Homo sapiens, UniProt P14416); experiment: CEREP panel; type: binding; details: 10 µM
T2 construct: CEREP (contract assay)

dopamine transporter (h) = molecular target: T3, dopamine transporter (h) (Homo sapiens, UniProt Q01959); experiment: CEREP panel; type: binding
T3 construct: CEREP (contract assay)

hABHD12 = molecular target: T4, hABHD12 (Homo sapiens, UniProt Q8N2K0); experiment: ABHD12 activity; type: biochemical; details: read-out: ABHD12 % inhibition
T4 construct: expressed in transfected cells
T4 sequence (Q8N2K0 1-398): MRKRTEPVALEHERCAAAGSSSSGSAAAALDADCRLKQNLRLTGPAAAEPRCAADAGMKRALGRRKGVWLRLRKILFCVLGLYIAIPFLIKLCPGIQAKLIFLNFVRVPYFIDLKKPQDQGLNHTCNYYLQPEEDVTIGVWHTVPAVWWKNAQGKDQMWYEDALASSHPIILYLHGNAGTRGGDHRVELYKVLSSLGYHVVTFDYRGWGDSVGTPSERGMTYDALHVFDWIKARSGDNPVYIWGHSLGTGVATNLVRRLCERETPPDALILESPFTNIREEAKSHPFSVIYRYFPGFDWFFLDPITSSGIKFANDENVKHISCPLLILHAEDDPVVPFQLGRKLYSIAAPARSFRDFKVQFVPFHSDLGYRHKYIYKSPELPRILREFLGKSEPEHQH

CCK1 (CCKA) (h) = molecular target: T5, CCK1 (CCKA) (h) (Homo sapiens, UniProt P32238); experiment: CEREP panel; type: binding
T5 construct: CEREP (contract assay)

[2] = phosphate buffer pH 6.5, from DMSO stock
Cl- channel (GABA-gated) = experiment: CEREP panel; type: binding; details: 10 µM
motilin = molecular target: T6, motilin (Homo sapiens, UniProt O43193); experiment: CEREP panel; type: binding
T6 construct: CEREP (contract assay)

BLT1 (LTB4) = molecular target: T7, BLT1 (LTB4) (Homo sapiens, UniProt Q15722); experiment: CEREP panel; type: binding
T7 construct: CEREP

PR = experiment: CEREP panel; type: binding; details: 10 µM
A2B = molecular target: T8, A2B (Homo sapiens, UniProt P29275); experiment: CEREP panel; type: binding
T8 construct: CEREP

C5a = molecular target: T9, C5a (Homo sapiens, UniProt P21730); experiment: CEREP panel; type: binding
T9 construct: CEREP (contract assay)

MCH1 = molecular target: T10, MCH1 (Homo sapiens, UniProt Q99705); experiment: CEREP panel; type: binding
T10 construct: CEREP (contract assay)

MC5 = molecular target: T11, MC5 (Homo sapiens, UniProt P33032); experiment: CEREP panel; type: binding
T11 construct: CEREP (contract assay)

B1 = molecular target: T12, B1 (Homo sapiens, UniProt P46663); experiment: CEREP panel; type: binding
T12 construct: CEREP

MC1 = molecular target: T13, MC1 (Mus musculus, UniProt Q01727); experiment: CEREP panel; type: binding
T13 construct: CEREP (contract assay)

MCH2 = molecular target: T14, MCH2 (Homo sapiens, UniProt Q969V1); experiment: CEREP panel; type: binding
T14 construct: CEREP (contract assay)

MC3 = molecular target: T15, MC3 (Homo sapiens, UniProt P41968); experiment: CEREP panel; type: binding
T15 construct: CEREP (contract assay)

H3 (h) = molecular target: T16, H3 (h) (Homo sapiens, UniProt Q9Y5N1); experiment: CEREP panel; type: binding; details: 10 µM
T16 construct: CEREP (contract assay)

H1 (h) = molecular target: T17, H1 (h) (Homo sapiens, UniProt P35367); experiment: CEREP panel; type: binding; details: 10 µM
T17 construct: CEREP (contract assay)
T17 sequence (P35367 whole entry): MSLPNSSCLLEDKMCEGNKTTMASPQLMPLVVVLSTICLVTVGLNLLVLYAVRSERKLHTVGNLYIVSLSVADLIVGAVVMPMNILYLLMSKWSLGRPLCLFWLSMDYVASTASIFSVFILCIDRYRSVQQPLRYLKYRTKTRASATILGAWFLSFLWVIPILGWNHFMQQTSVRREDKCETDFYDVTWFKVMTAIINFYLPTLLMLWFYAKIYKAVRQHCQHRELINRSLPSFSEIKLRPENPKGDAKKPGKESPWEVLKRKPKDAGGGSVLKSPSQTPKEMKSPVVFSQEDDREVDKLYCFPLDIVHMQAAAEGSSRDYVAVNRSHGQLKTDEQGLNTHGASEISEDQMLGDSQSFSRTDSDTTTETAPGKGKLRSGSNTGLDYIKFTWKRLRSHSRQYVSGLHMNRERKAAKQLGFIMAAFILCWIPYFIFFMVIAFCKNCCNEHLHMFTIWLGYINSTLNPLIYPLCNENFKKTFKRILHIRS

T2 sequence (P14416 1-414 isoform P14416-2): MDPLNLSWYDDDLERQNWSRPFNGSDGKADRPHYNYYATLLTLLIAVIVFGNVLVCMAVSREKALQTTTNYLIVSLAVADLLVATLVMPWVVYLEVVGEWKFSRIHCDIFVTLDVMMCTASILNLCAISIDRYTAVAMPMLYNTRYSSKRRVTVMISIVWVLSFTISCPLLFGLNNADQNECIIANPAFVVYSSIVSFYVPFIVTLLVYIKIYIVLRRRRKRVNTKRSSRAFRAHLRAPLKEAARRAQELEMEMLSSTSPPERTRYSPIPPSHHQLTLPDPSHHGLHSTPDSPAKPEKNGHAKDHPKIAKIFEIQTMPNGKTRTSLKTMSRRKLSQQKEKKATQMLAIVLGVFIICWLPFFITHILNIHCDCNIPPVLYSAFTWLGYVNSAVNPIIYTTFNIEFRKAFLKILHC
T15 sequence (P41968 whole entry): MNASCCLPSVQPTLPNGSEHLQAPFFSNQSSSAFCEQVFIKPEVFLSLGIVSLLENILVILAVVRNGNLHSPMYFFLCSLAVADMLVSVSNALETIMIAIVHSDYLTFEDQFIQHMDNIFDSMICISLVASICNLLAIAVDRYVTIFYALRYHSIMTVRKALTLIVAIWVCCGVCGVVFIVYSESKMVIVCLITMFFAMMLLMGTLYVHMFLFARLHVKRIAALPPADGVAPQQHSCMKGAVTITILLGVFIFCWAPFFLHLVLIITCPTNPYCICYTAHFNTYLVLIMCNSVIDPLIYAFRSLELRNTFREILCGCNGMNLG
T7 sequence (Q15722 whole entry): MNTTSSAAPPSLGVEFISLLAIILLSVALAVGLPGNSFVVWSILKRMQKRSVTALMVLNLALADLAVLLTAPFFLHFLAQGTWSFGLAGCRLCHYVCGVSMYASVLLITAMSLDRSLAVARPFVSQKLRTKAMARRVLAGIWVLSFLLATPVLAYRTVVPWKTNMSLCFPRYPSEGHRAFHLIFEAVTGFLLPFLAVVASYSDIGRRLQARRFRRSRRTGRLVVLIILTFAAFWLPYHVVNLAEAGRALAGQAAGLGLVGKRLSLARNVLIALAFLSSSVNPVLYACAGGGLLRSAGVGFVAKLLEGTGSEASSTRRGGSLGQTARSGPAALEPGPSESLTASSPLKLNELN
T8 sequence (P29275 whole entry): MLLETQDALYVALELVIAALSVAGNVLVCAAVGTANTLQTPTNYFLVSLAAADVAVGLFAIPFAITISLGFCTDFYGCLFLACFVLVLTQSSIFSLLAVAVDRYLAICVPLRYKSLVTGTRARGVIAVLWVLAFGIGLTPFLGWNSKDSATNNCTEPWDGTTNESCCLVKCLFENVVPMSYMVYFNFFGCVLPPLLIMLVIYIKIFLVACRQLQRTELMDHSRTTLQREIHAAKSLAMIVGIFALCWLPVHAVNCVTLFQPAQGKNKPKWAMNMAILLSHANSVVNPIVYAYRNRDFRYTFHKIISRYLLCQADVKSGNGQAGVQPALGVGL
T1 sequence (Q01959 whole entry): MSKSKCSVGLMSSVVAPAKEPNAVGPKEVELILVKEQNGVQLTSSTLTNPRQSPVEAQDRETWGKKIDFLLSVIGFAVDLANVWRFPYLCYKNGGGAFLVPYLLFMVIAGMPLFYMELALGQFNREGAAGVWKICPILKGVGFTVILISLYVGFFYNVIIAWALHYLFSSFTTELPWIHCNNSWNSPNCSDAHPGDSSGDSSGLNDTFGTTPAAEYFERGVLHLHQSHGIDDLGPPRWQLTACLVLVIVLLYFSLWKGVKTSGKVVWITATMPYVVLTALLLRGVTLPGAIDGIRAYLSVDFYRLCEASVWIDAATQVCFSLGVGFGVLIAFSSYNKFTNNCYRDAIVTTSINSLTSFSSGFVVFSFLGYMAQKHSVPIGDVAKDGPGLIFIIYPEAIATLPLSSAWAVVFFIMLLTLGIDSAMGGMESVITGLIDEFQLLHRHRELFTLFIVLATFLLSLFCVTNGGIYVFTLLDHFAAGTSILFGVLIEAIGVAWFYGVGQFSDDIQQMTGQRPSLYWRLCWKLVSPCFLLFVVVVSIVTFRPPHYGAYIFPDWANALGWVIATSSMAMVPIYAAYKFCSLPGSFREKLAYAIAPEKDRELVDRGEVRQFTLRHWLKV
T3 sequence (Q01959 whole entry): as above
T13 sequence (Q01727 whole entry): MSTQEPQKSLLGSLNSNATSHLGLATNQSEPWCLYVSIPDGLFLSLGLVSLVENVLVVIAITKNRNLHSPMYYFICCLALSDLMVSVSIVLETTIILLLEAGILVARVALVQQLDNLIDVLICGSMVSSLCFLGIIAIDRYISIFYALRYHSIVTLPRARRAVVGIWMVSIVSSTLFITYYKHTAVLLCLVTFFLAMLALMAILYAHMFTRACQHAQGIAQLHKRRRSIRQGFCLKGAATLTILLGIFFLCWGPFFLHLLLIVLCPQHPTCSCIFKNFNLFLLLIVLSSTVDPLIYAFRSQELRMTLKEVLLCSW
T14 sequence (Q969V1 whole entry): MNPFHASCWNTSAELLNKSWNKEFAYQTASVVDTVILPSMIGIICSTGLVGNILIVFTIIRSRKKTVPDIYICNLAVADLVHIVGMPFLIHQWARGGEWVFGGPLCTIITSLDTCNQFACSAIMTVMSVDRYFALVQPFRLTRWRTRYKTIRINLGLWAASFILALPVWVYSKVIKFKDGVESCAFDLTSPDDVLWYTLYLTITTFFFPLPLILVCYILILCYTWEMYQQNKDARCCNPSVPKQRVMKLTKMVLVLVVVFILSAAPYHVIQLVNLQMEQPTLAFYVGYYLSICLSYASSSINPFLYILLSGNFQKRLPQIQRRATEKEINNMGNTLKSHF
T6 sequence (O43193 whole entry): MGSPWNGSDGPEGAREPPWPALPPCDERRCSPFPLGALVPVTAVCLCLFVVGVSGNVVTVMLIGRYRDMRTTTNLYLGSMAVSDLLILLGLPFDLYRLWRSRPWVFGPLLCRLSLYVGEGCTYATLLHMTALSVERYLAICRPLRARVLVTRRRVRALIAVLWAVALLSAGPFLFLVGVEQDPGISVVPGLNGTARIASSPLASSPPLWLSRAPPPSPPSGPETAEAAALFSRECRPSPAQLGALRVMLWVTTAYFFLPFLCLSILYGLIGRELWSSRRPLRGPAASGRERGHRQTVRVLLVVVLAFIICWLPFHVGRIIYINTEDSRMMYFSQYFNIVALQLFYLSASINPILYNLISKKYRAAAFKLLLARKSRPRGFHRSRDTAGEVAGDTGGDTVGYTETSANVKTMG
T9 sequence (P21730 whole entry): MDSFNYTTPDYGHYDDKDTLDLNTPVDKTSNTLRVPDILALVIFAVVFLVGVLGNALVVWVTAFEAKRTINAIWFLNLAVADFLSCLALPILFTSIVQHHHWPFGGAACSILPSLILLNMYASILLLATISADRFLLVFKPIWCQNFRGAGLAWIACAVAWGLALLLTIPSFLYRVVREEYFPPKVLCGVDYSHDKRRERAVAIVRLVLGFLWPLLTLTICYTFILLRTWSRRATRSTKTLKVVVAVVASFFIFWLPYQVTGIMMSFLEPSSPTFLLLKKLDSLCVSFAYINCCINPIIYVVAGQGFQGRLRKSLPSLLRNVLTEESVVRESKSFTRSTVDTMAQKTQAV
T16 sequence (Q9Y5N1 whole entry): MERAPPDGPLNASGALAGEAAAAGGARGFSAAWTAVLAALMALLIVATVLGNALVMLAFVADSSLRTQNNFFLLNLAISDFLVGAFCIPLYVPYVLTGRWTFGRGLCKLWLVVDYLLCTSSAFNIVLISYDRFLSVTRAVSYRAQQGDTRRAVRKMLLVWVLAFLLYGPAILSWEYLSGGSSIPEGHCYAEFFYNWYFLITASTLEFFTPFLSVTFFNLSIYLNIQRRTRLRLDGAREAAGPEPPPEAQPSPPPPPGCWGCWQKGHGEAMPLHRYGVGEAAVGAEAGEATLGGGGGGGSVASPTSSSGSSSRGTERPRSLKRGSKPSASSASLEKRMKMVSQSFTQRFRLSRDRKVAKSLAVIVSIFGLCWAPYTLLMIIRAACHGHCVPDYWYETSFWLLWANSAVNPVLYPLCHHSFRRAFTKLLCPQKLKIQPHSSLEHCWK
T12 sequence (P46663 whole entry): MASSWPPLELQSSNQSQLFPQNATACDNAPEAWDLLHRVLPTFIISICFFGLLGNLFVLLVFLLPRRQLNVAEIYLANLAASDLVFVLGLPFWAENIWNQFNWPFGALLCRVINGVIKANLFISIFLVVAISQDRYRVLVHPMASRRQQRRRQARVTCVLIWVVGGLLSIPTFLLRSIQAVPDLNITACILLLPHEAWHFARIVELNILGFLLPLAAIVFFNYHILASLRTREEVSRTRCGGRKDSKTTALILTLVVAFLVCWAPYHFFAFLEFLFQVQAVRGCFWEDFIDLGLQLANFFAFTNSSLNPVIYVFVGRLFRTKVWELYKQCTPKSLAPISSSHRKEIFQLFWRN

In the case of CCCCCCC(C)(C)c1cc(OC)c(C2=C[C@H]3CC[C@]2(CO)C3(C)C)c(OC)c1 [HU910], the IC50 (dopamine uptake reporter) is reported as 1.4 µM.
For CCCC(C)(C)c1ccc2c(c1)OC(C)(C)[C@@H]1CC=C(C)C[C@@H]21 [JWH133], the AUCinf/dose [1] was 583 kg·ng·h/mL/mg, the AUClast [1] was 3330 ng·h/mL and the T1/2 [1] was 2.7 h. The Cmax ([1]; 6.0 mg/kg) was 2070 ng/mL and the Tmax ([1]; 6.0 mg/kg) was 1.1 h.
With Cc1ccc2c(c1)Cc1c(C(=O)NN3CCCCC3)nn(-c3ccc(Cl)cc3Cl)c1-2 [Gp-1a] the “% inhibition D2S (h)” value (D2S (h)) was 53%.
CCCCCCC(C)(C)c1cc(OC)c([C@@H]2C=C(CO)[C@@H]3C[C@H]2C3(C)C)c(OC)c1 [HU308] gave an inhibition at 10 µM (dopamine transporter (h)) of 71%, an inhibition at 5 µM (hABHD12) of less than 25% and an inhibition at 10 µM (CCK1 (CCKA) (h)) of 75%.
In the case of CCCCCCC(C)(C)c1ccc([C@@H]2C[C@H](O)CC[C@H]2CCCO)c(O)c1 [CP55940], the Kinetic solubility [2] is reported as “soluble”.
For COc1ccc(C(=O)c2c(C)n(CCN3CCOCC3)c3cc(I)ccc23)cc1 [AM630], the “% inhibition Cl- channel (GABA-gated)” value (Cl- channel (GABA-gated)) was 87%.
For Cc1c(C(=O)NN2CCCCC2)nn(-c2ccc(Cl)cc2Cl)c1-c1ccc(Cl)cc1 [SR141716A], the inhibition at 10 µM (motilin) was 25%, the inhibition at 10 µM (BLT1 (LTB4)) was 14% and the “% inhibition PR” value (PR) was 12%. It also gave an inhibition at 10 µM (A2B) of -7%, an inhibition at 10 µM (C5a) of 2% and an inhibition at 10 µM (MCH1) of -12%. For the same compound, the inhibition at 10 µM (MC5) was 39%, the inhibition at 10 µM (B1) was -3% and the inhibition at 10 µM (MC1) was 10%. For the same compound, the inhibition at 10 µM (MCH2) was -3%, the inhibition at 10 µM (MC3) was 53% and the “% inhibition Cl- channel (GABA-gated)” value (Cl- channel (GABA-gated)) was 83%.
For CN1CCCC[C@H]1Cn1cc(C(=O)c2cc([N+](=O)[O-])ccc2I)c2ccccc21 [(S)-AM1241], the “% inhibition H3 (h)” value (H3 (h)) was 87% and the “% inhibition H1 (h)” value (H1 (h)) was 78%.
